# Reference: ChEMBL document CHEMBL1157482, “Insight from molecular modeling into different conformation and SAR of natural steroids and unnatural 7-oxa-steroids” (Bioorg Med Chem Lett, 2008)
# Legend:
# Rattus norvegicus [1] = experiment: Antiprogestin activity against ovariectomized po dosed Sprague-Dawley rat assessed as effect on ethinyl estradiol-induced C3 expression; type: functional; conditions: read-out: ID50 (the source's name)
# Rattus norvegicus [2] = experiment: Antiprogestin activity against ovariectomized Sprague-Dawley rat assessed as effect on ethinyl estradiol-induced C3 expression at 10 mg/kg, po; type: functional
# [3] = Cmax in rat at 30 mg/kg, po; type: ADME, organism-based; parameters: dose 30 mg/kg, route oral; conditions: in vivo
# [4] = Tmax in rat at 30 mg/kg, po; type: ADME, organism-based; parameters: dose 30 mg/kg, route oral; conditions: in vivo
# [5] = Half life in rat at 30 mg/kg, po; type: ADME, organism-based; parameters: dose 30 mg/kg, route oral; conditions: in vivo
# [6] = Mean retention time in rat at 30 mg/kg, po; type: ADME, organism-based; parameters: dose 30 mg/kg, route oral; conditions: in vivo
# Rattus norvegicus [7] = experiment: AUC (last) in rat at 30 mg/kg, po; type: ADME, organism-based, Plasma; parameters: time 0 - last, dose 30 mg/kg, route oral; conditions: in vivo
# Rattus norvegicus [8] = experiment: AUC (0 to infinity) in rat at 30 mg/kg, po; type: ADME, organism-based, Plasma; parameters: time infinity, dose 30 mg/kg, route oral; conditions: in vivo
# [9] = Cmax in rat at 10 mg/kg, po; type: ADME, organism-based; parameters: dose 10 mg/kg, route oral; conditions: in vivo
# [10] = Tmax in rat at 10 mg/kg, po; type: ADME, organism-based; parameters: dose 10 mg/kg, route oral; conditions: in vivo
# [11] = Half life in rat at 10 mg/kg, po; type: ADME, organism-based; parameters: dose 10 mg/kg, route oral; conditions: in vivo
# [12] = Mean retention time in rat at 10 mg/kg, po; type: ADME, organism-based; parameters: dose 10 mg/kg, route oral; conditions: in vivo
# Rattus norvegicus [13] = experiment: AUC (last) in rat at 10 mg/kg, po; type: ADME, organism-based, Plasma; parameters: time 0 - last, dose 10 mg/kg, route oral; conditions: in vivo
# Rattus norvegicus [14] = experiment: AUC (0 to infinity) in rat at 10 mg/kg, po; type: ADME, organism-based, Plasma; parameters: dose 10 mg/kg, route oral, time infinity; conditions: in vivo
smiles,measurement,setting,value
CC#C[C@]1(O)CC[C@H]2[C@@H]3CCC4=CC(=O)CCC4=C3[C@@H](c3ccc(N(C)C)cc3)C[C@@]21C [MIFEPRISTONE],ED50,Rattus norvegicus [1],2.1 mg/kg
same,Efficacy,Rattus norvegicus [2],130%
same,Cmax,[3],53.8 ng/mL
same,Tmax,[4],12.5 h
same,half-life,[5],5.56 h
same,MRT,[6],8 h
same,AUC,Rattus norvegicus [7],446 ng·h/mL
same,AUC,Rattus norvegicus [8],3570 ng·h/mL
CC#C[C@]1(O)CC[C@H]2[C@@H]3OCC4=CC(=O)CCC4=C3[C@@H](c3ccc(N(C)C)cc3)C[C@@]21C,ED50,Rattus norvegicus [1],2.4 mg/kg
same,Efficacy,Rattus norvegicus [2],110%
CN(C)c1ccc([C@H]2C[C@@]3(C)[C@@H](CC[C@@]3(O)C#Cc3ccc(F)cc3)[C@@H]3OCC4=CC(=O)CCC4=C32)cc1,Cmax,[9],48.7 ng/mL
same,Tmax,[10],3 h
same,half-life,[11],6.88 h
same,MRT,[12],9.4 h
same,AUC,Rattus norvegicus [13],460 ng·h/mL
same,AUC,Rattus norvegicus [14],505 ng·h/mL
CN(C)c1ccc([C@H]2C[C@@]3(C)[C@@H](CC[C@@]3(O)C#Cc3ccccc3)[C@@H]3OCC4=CC(=O)CCC4=C32)cc1,ED50,Rattus norvegicus [1],2.5 mg/kg
same,Efficacy,Rattus norvegicus [2],100%
